From patent US10202353B2, “Therapeutic compounds” (Gilead Sciences, Inc., priority 2014, dated 2019)

Key:
[1] = Test B: Cytotoxicity Assay; format: cell-based; settings: human, uninfected MT4 cells, same protocol as Test A
Experimental: (§1) For the antiviral assay, 40 μL of a concentration required to achieve a final effective 1× test concentration of 3-fold serially diluted compound in culture medium with 10% FBS was added to each well of a 384-well plate (10 concentrations) in quadruplicate. MT4 cells were next mixed with HIV-IIIb at an m.o.i of 0.003 for 1 hour, after which time 35 μL of virus/cell mixture (2000 cells) was immediately added to each well containing 40 μL of diluted compound. The plates were then incubated at 37° C. for 5 days. After 5 days of incubation, 25 μl of 2× concentrated CellTiter-Glo™ Reagent (catalog # G7571, Promega Biosciences, Inc., Madison, Wis.) was added to each well containing MT-4 cells. Cell lysis was carried out by incubating at room temperature for 10 min and then chemiluminescence was read. EC50 values were calculated as the compound concentration that caused a 50% decrease in luminescence signal, a measure of HIV-1 replication. Percent inhibition of virus-induced cell killing calculated from the dose response curve at 2 μM drug concentration is shown in the table below. Compound cytotoxicity and the corresponding CC50 values was determined using the same protocol as described in the antiviral assay (Test A) except that uninfected cells were used.

HIV-IIIb = experiment: Test A: Antiviral assay in MT4 Cells; format: cell-based, HIV-1; settings: Human immunodeficiency virus 1, 120 h; 2 μM drug concentration; MT4 cells infected with HIV-IIIb, 5 days; calculated from dose response curve; values normalized to 100% where greater than 100; read-out: % Inhibition at 2 μM (percent inhibition of virus-induced cell killing)
Experimental: as §1, with “below.” for “below. Compound cytotoxicity and the corresponding CC50 values was determined using the same protocol as described in the antiviral assay (Test A) except that uninfected cells were used.”

| SMILES | CC50 at 5 days [1] [µM] | inhibition at 2 µM (HIV-IIIb) [%] |
| --- | --- | --- |
| CN(C(=O)[C@H](Cc1ccccc1)NC(=O)Cn1nc(C(F)(F)F)c2c1CCCC2)c1ccccc1 [Compound 1, (S)—N-methyl-N,3-diphenyl-2-(2-(3-(trifluoromethyl)-4,5,6,7-tetrahydro-1H-indazol-1-yl)acetamido)propanamide] | 23.5 | 98 |
| COc1ccc(N(C)C(=O)[C@H](Cc2ccccc2)NC(=O)Cn2nc(C(F)(F)F)c3c2CCCC3)cc1 [Compound 2] | 18.4 | 100 |
| CN(C(=O)[C@H](Cc1ccccc1)NC(=O)Cn1nc(C(F)(F)F)c2c1CCCC2)c1ccc2ccccc2c1 [Compound 3, (S)—N-methyl-N-(naphthalen-2-yl)-3-phenyl-2-(2-(3-(trifluoromethyl)-4,5,6,7-tetrahydro-1H-indazol-1-yl)acetamido)propanamide] | 11.1 | 79 |
| COc1ccc(N(C)C(=O)[C@H](Cc2cc(F)cc(F)c2)NC(=O)Cn2nc(C(F)(F)F)c3c2CCCC3)cc1 [Compound 4, (S)-3-(3,5-difluorophenyl)-N-(4-methoxyphenyl)-N-methyl-2-(2-(3-(trifluoromethyl)-4,5,6,7-tetrahydro-1H-indazol-1-yl)acetamido)propanamide] | 12.5 | 100 |
| CN(C(=O)[C@H](Cc1ccncc1)NC(=O)Cn1nc(C(F)(F)F)c2c1CCCC2)c1ccccc1 [Compound 5] | > 53 | 0 |
| CN(C(=O)[C@H](Cc1cccnc1)NC(=O)Cn1nc(C(F)(F)F)c2c1CCCC2)c1ccccc1 [Compound 6] | > 53 | 52 |
| CN(C(=O)[C@H](Cc1ccccn1)NC(=O)Cn1nc(C(F)(F)F)c2c1CCCC2)c1ccccc1 [Compound 7] | > 53 | 1 |
| CN(C(=O)[C@H](Cc1cccs1)NC(=O)Cn1nc(C(F)(F)F)c2c1CCCC2)c1ccccc1 [Compound 8] | 25.6 | 95 |
| CN(C(=O)[C@H](Cc1cncn1C)NC(=O)Cn1nc(C(F)(F)F)c2c1CCCC2)c1ccccc1 [Compound 9] | > 53 | 5 |
| CN(C(=O)[C@H](Cc1csc2ccccc12)NC(=O)Cn1nc(C(F)(F)F)c2c1CCCC2)c1ccccc1 [Compound 10, (S)-3-(benzo[b]thiophen-3-yl)-N-methyl-N-phenyl-2-(2-(3-(trifluoromethyl)-4,5,6,7-tetrahydro-1H-indazol-1-yl)acetamido)propanamide] | 10.5 | 2 |
| CN(C(=O)[C@H](Cc1cscn1)NC(=O)Cn1nc(C(F)(F)F)c2c1CCCC2)c1ccccc1 [Compound 11, (S)—N-methyl-N-phenyl-3-(thiazol-4-yl)-2-(2-(3-(trifluoromethyl)-4,5,6,7-tetrahydro-1H-indazol-1-yl)acetamido)propanamide] | > 53 | 21 |
| CN(C(=O)[C@H](Cn1cccn1)NC(=O)Cn1nc(C(F)(F)F)c2c1CCCC2)c1ccccc1 [Compound 12, (S)—N-methyl-N-phenyl-3-(1H-pyrazol-1-yl)-2-(2-(3-(trifluoromethyl)-4,5,6,7-tetrahydro-1H-indazol-1-yl)acetamido)propanamide] | > 53 | 10 |
| CN(C(=O)[C@H](Cc1ccccc1)NC(=O)Cn1nc(C(F)(F)F)c2c1CCCCC2)c1ccccc1 [Compound 13] | 22.2 | 87 |
| CN(C(=O)[C@H](CC1CCC1)NC(=O)Cn1nc(C(F)(F)F)c2c1CCCC2)c1ccccc1 [Compound 14] | 29 | 16 |
| CN(C(=O)[C@H](Cc1cccc(C#N)c1)NC(=O)Cn1nc(C(F)(F)F)c2c1CCCC2)c1ccccc1 [Compound 15, (S)-3-(3-cyanophenyl)-N-methyl-N-phenyl-2-(2-(3-(trifluoromethyl)-4,5,6,7-tetrahydro-1H-indazol-1-yl)acetamido)propanamide] | 26.3 | 26 |
| CN(C(=O)[C@H](Cc1cccc(Cl)c1)NC(=O)Cn1nc(C(F)(F)F)c2c1CCCC2)c1ccccc1 [Compound 16, (S)-3-(3-chlorophenyl)-N-methyl-N-phenyl-2-(2-(3-(trifluoromethyl)-4,5,6,7-tetrahydro-1H-indazol-1-yl)acetamido)propanamide] | 16.7 | 58 |
| CN(C(=O)[C@H](Cc1cccc([N+](=O)[O-])c1)NC(=O)Cn1nc(C(F)(F)F)c2c1CCCC2)c1ccccc1 [Compound 17, (S)—N-methyl-3-(3-nitrophenyl)-N-phenyl-2-(2-(3-(trifluoromethyl)-4,5,6,7-tetrahydro-1H-indazol-1-yl)acetamido)propanamide] | 19.2 | 0 |
| CN(C(=O)[C@H](Cc1cccc(C(N)=O)c1)NC(=O)Cn1nc(C(F)(F)F)c2c1CCCC2)c1ccccc1 [Compound 18, (S)-3-(3-(methyl(phenyl)amino)-3-oxo-2-(2-(3-(trifluoromethyl)-4,5,6,7-tetrahydro-1H-indazol-1-yl)acetamido)propyl)benzamide] | > 53 | 0 |
| CN(C(=O)[C@H](Cc1cccc(Br)c1)NC(=O)Cn1nc(C(F)(F)F)c2c1CCCC2)c1ccccc1 [Compound 19, (S)-3-(3-bromophenyl)-N-methyl-N-phenyl-2-(2-(3-(trifluoromethyl)-4,5,6,7-tetrahydro-1H-indazol-1-yl)acetamido)propanamide] | 17.3 | 27 |
| CN(C(=O)[C@H](CC1CCOCC1)NC(=O)Cn1nc(C(F)(F)F)c2c1CCCC2)c1ccccc1 [Compound 20, (S)—N-methyl-N-phenyl-3-(tetrahydro-2H-pyran-4-yl)-2-(2-(3-(trifluoromethyl)-4,5,6,7-tetrahydro-1H-indazol-1-yl)acetamido)propanamdide] | > 53 | 0 |
| CN(C(=O)[C@H](Cc1cccc(C(F)(F)F)c1)NC(=O)Cn1nc(C(F)(F)F)c2c1CCCC2)c1ccccc1 [Compound 21, (S)—N-methyl-N-phenyl-2-(2-(3-(trifluoromethyl)-4,5,6,7-tetrahydro-1H-indazol-1-yl)acetamido)-3-(3-(trifluoromethyl)phenyl)propanamide] | 11.3 | 0 |
| CN(C(=O)[C@H](Cc1ccsc1)NC(=O)Cn1nc(C(F)(F)F)c2c1CCCC2)c1ccccc1 [Compound 22, (S)—N-methyl-N-phenyl-3-(thiophen-3-yl)-2-(2-(3-(trifluoromethyl)-4,5,6,7-tetrahydro-1H-indazol-1-yl)acetamido)propanamide] | 25 | 94 |
| CN(C)c1ccc(N(C)C(=O)[C@H](Cc2ccccc2)NC(=O)Cn2nc(C(F)(F)F)c3c2CCCC3)cc1 [Compound 23, (S)—N-(4-(dimethylamino)phenyl)-N-methyl-3-phenyl-2-(2(3-(trifluoromethyl)-4,5,6,7-tetrahydro-1H-indazol-1-yl)acetamido)propanamide] | 19.2 | 100 |
| CN(C(=O)[C@H](Cc1cc(F)cc(F)c1)NC(=O)Cn1nc(C(F)(F)F)c2c1CCCC2)c1ccc(F)cc1 [Compound 24, (S)-3-(3,5-difluorophenyl)-N-(4-fluorophenyl)-N-methyl-2-(2-(3-(trifluoromethyl)-4,5,6,7-tetrahydro-1H-indazol-1-yl)acetamido)propanamide] | 12.2 | 93 |
| COc1ccc(N(C)C(=O)[C@H](Cc2cc(F)cc(F)c2)NC(=O)Cn2nc(C(F)(F)F)c3c2CC(C)CC3)cc1 (stereo partly drawn) [Compound 25, (2S)-3-(3,5-difluorophenyl)-N-(4-methoxyphenyl)-N-methyl-2-(2-(6-methyl-3-(trifluoromethyl)-4,5,6,7-tetrahydro-1H-indazol-1-yl)acetamido)propanamide] | 11.1 | 100 |
| COc1ccc(N(C)C(=O)[C@H](Cc2cc(F)cc(F)c2)NC(=O)Cn2nc(C(F)(F)F)c3c2C(C)CCC3)cc1 (stereo partly drawn) [Compound 26, (2S)-3-(3,5-difluorophenyl)-N-(4-methoxyphenyl)-N-methyl-2-(2-(7-methyl-3-(trifluoromethyl)-4,5,6,7-tetrahydro-1H-indazol-1-yl)acetamido)propanamide] | 9.82 | 100 |
| COc1ccc(N(C)C(=O)[C@H](Cc2cc(F)cc(F)c2)NC(=O)Cn2nc(C(F)(F)F)c3c2CCC2(C3)OCCO2)cc1 [Compound 27] | 19.9 | 32 |
